Molecular target: Histone deacetylase
Description: Inhibitory activity against histone deacetylase (HDAC)

IC50 | SMILES
152 nM | CN(C)c1ccc(C(=O)NCCCCCC(=O)NO)cc1
12187 nM | C[C@H](/C=C/C=C/C(=O)NO)NC(=O)c1ccc(N(C)C)cc1
359 nM | C[C@H](CCCCC(=O)NO)NC(=O)c1ccc(N(C)C)cc1

— ChEMBL document CHEMBL1136406, “Amide analogues of TSA: synthesis, binding mode analysis and HDAC inhibition” (Bioorg Med Chem Lett, 2003)
